± gives the expanded uncertainty stated by the source.
Settings: Fluid (supercritical or subcritical phases), Coaxial cylinder method

CCCCCC [hexane]
thermal conductivity [W/m/K]
Settings | 525.42 K | 553 K
1000 kPa | – | 0.04354 ± 0.0022
1120 kPa | – | 0.0439 ± 0.0022
1400 kPa | – | 0.04407 ± 0.0022
1500 kPa | – | 0.04431 ± 0.0022
1600 kPa | – | 0.04443 ± 0.0022
1700 kPa | – | 0.04455 ± 0.0022
1800 kPa | – | 0.0448 ± 0.0022
1900 kPa | – | 0.04493 ± 0.0022
2000 kPa | – | 0.04518 ± 0.0023
2100 kPa | – | 0.04543 ± 0.0023
2200 kPa | – | 0.04556 ± 0.0023
2300 kPa | – | 0.04582 ± 0.0023
2400 kPa | – | 0.04608 ± 0.0023
2500 kPa | – | 0.04635 ± 0.0023
2600 kPa | – | 0.04661 ± 0.0023
2700 kPa | – | 0.04688 ± 0.0023
2800 kPa | – | 0.04716 ± 0.0023
2900 kPa | – | 0.04743 ± 0.0024
3000 kPa | – | 0.04743 ± 0.0024
3100 kPa | – | 0.04814 ± 0.0024
3200 kPa | – | 0.04857 ± 0.0024
3300 kPa | – | 0.04897 ± 0.0024
3400 kPa | – | 0.04942 ± 0.0024
3500 kPa | – | 0.05003 ± 0.0024
3600 kPa | – | 0.0505 ± 0.0025
3700 kPa | – | 0.05127 ± 0.0025
3800 kPa | – | 0.05191 ± 0.0025
3900 kPa | – | 0.05255 ± 0.0026
4000 kPa | – | 0.05325 ± 0.0026
4100 kPa | – | 0.05395 ± 0.0026
4200 kPa | – | 0.05468 ± 0.0027
4268 kPa | – | 0.05523 ± 0.0027
4390 kPa | – | 0.05618 ± 0.0027
4700 kPa | – | 0.0589 ± 0.0028
4800 kPa | – | 0.05987 ± 0.0029
4900 kPa | – | 0.06075 ± 0.0029
5000 kPa | – | 0.06166 ± 0.0029
5300 kPa | – | 0.06418 ± 0.003
5500 kPa | – | 0.06559 ± 0.0031
5800 kPa | – | 0.06746 ± 0.0032
6000 kPa | – | 0.06843 ± 0.0032
6300 kPa | – | 0.06974 ± 0.0033
6500 kPa | – | 0.07019 ± 0.0033
6800 kPa | – | 0.07109 ± 0.0033
7000 kPa | – | 0.0717 ± 0.0034
7200 kPa | – | 0.07202 ± 0.0034
7500 kPa | – | 0.07265 ± 0.0034
7800 kPa | – | 0.07329 ± 0.0034
8000 kPa | – | 0.07361 ± 0.0034
8300 kPa | – | 0.07427 ± 0.0035
8500 kPa | – | 0.07427 ± 0.0035
8800 kPa | – | 0.07545 ± 0.0035
9000 kPa | – | 0.07545 ± 0.0035
9250 kPa | – | 0.07562 ± 0.0035
9500 kPa | – | 0.07582 ± 0.0035
9800 kPa | – | 0.07617 ± 0.0035
9900 kPa | 0.07737 ± 0.0036 | –
10000 kPa | – | 0.07635 ± 0.0035
10150 kPa | 0.07772 ± 0.0036 | –
10200 kPa | 0.07779 ± 0.0036 | –
10300 kPa | 0.07793 ± 0.0036 | 0.07652 ± 0.0036
10400 kPa | 0.07804 ± 0.0036 | –
10500 kPa | 0.07815 ± 0.0036 | 0.07688 ± 0.0036
10600 kPa | 0.07833 ± 0.0036 | –
10800 kPa | 0.07855 ± 0.0036 | 0.07716 ± 0.0036
11000 kPa | – | 0.0773 ± 0.0036
11500 kPa | 0.07941 ± 0.0037 | 0.07777 ± 0.0036
11600 kPa | 0.07956 ± 0.0037 | –
11800 kPa | 0.07975 ± 0.0037 | –
12000 kPa | 0.07994 ± 0.0037 | 0.07832 ± 0.0036
12300 kPa | 0.08032 ± 0.0037 | 0.07869 ± 0.0036
12500 kPa | 0.08048 ± 0.0037 | –
12870 kPa | – | 0.07914 ± 0.0037
13500 kPa | – | 0.07983 ± 0.0037
14000 kPa | – | 0.08021 ± 0.0037
14500 kPa | – | 0.08068 ± 0.0037
15000 kPa | – | 0.08119 ± 0.0037
